Laboratory results: patent US6897316B2, “Substituted 2-phenyl-4-quinolone-3-carboxylic acid compounds and their use as antitumor agents” (China Medical University, priority 2003, dated 2005)

Assays:
[1] = system: panel of 39 human cancer cell lines; assay: Growth inhibition against human cancer cell line panel (Sulforhodamine B, 48 h); assay type: cell-based
Procedure: (§1) Compound IX-8 was evaluated growth inhibition activities against a panel of 39 human cancer cell lines including Human breast cancer MDA-MB-231 and the following human cancer cell lines were generously distributed by the National Cancer Institute (Frederick, Md.): lung cancer, NCI-H23, NCI-H226, NCI-H522, NCI-H460, A-549, DMS273 and DMS114; colon cancer, HGC-2998, KM-12, HT-29, HCT-15, and HCT-116; ovarian cancer, OVCAR-3, OVCAR-4, OVCAR-5, OVCAR-8, and SKOV-3; breast cancer, MCF-7; renal cancer, RXF-631L and ACHN; melanoma, LOX-IMVI; brain tumor, U251, SF-295, SF-539, SF-268, SNB-75, and SNB-78, and prostate cancer, DU-145 and PC-3. […]
(§2) The details of measuring cell growth inhibition are described elsewhere [Monks, A., Scudiero, D., Skehan, P., Shoemaker, R., Paull, K., Vistica, D., Hose, C., Langley, J., Cronise, P., Vaigro-Wolff, A., Gray-Goodrich, M., Campbell, H., Mayo, J., Boyd, M. Feasibility of a high-flux anticancer drug screen using a diverse panel of cultured human tumor cell lines. […] Then, the cell growth was determined according to the Sulforhodamine B assay, described by Skehan et al [Skehan, P., Storeng, R., Scudiero, D., Monks, A., McMahon, J., Vistica, D., Warren, J. T., Bokesch, H., Kenney, S., Boyd, M. R. New calorimetric cytotoxicity assay for anticancer-drug screening. […]

[2] = system: HGC2998 (colon cancer); assay: Growth inhibition in human cancer cell line panel, HGC2998; assay type: cell-based; conditions: 48 hr, SRB
Procedure: as §1, §2

COc1ccc2[nH]c(-c3cccc(F)c3)c(C(=O)O)c(=O)c2c1 [IX-8, 3′-Fluoro-6-methoxy-2-phenyl-4-quinolone-3-carboxylic acid]
activity against cancer cell line panel in words ([1]; cell line panel): active against most cancer cell lines
MG-MID (mean growth midpoint) of log GI50 ([1]; mean over cell line panel, 10^−4 to 10^−8 M): −6.22 M
GI50 [2]: 138 nM
